What was measured:
[1] = molecular target: HIF-1/HRE pathway; assay: LN229-HRE-AP hypoxia-inducible alkaline phosphatase reporter bioassay; format: cell-based, human
Description: Genetically engineered LN229 cells (a human glioma cell line) which stably express the alkaline phosphatase reporter gene under the control of six copies of a hypoxia-responsive element was used to identify small-molecule inhibitors of the HIF-1/HRE pathway. The engineered LN229 cell line is disclosed in U.S. Provisional Patent Application No. 60/235,283, which is incorporated by reference in its entirety herein. Cells were seeded at 40,000 cells per well in 96-well plates. Compounds of interest with 2,2-dimethylbenzopyran motifs were added and the plates were incubated under hypoxia (1% O2, 5% CO2 and 94% N2) at 37° C. for 24 h. Cells were then washed with phosphate-buffered saline and incubated with p-nitrophenyl phosphate at 37° C. for 30 min. The reaction was terminated by adding 3 N NaOH and the plates were read for absorbance at 405 nm. The anti-HIF-1/HRE activity of each compound was quantified as the decrease of percentage of alkaline phosphatase (AP) activity compared to the untreated control cells. […]
To screen for small molecule HIF-1 pathway inhibitors, a cell-based assay was established by stably transfecting a glioma cell line with a hypoxia-inducible alkaline phosphatase (AlkPhos) expression vector (LN229-HRE-AP). Exposure of the cells to hypoxia (1% O2) induced reporter gene expression, which could be detected and quantitated by a […] reaction. […]

[2] = test system: HIF-1α; assay: Western blot of total protein levels in LN229 cell extracts; format: cell-based, human
Description: (§1) FIG. 11 illustrates an analysis of specificity of KCN1. LN229 cells were pre-treated with KCN1 (25 uM) for 1 h and then put in 1% O2 for […]. Cell extracts were analyzed by Western blot for levels of total proteins (FIG. 11 (A)) and phospho-proteins by multiplex Western FIG. 11 (B)). It should be noted that a strong increase of HIF-1α levels under hypoxia is inhibited by KCN1.
(§2) The above extracts were further analyzed to detect changes in the activity states of key signal transduction proteins by multiplex Western (Kinexus). This method allows the simultaneous screening of 37 different phospho-proteins involved in key cell signaling pathways. […] KCN1 inhibits only HIF-1α under hypoxic conditions (FIG. 11 (C)).

[3] = test system: phospho-proteins involved in key cell signaling pathways; assay: multiplex Western (Kinexus) of phospho-proteins in LN229 cell extracts; format: cell-based, human; conditions: 27 of 37 phospho-proteins
Description: as §1, §2

[4] = test system: HIF-1 alpha mRNA; assay: Northern blot of HIF-1 alpha mRNA; format: cell-based; conditions: with or without KCN1 treatment
Description: To examine whether KCN1 might interfere with mRNA synthesis or stability Northern blots were performed.
(§3) To gain insight into the possible mechanism of action of KCN1 a number of experiments listed below were performed. First, an experiment focused on whether KCN1 might block HIF at the mRNA or protein level was performed. To examine whether KCN1 might interfere with HIF-1 alpha mRNA synthesis or stability, Northern blots were performed. […] Second, an experiment focused on whether KCN1 might interfere with the ability of HIF to translocate to the nucleus was performed by examining its location by microscopy in LN229 cells. Under hypoxia KCN1 inhibits HIF accumulation, confirming the Western blot results and no HIF is seen in the nucleus or cytoplasm.

[5] = test system: HIF; assay: microscopy of HIF location and HRE-luciferase activity in LN229 cells; format: cell-based, human
Excerpt: To examine whether KCN1 might interfere with the ability of HIF to translocate to the nucleus, its location was examined by microscopy in LN229 cells containing a stably integrated HRE-luciferase reporter construct. Under hypoxia KCN1 inhibits HIF accumulation and no HIF is seen in the nucleus or cytoplasm. […] Measurement of HIF-induced luciferase activity (lower panel) confirms that HIF is transcriptionally active in the presence of KCN1 in the COCl2 treated cells.
as §3
In addition, experiments focused on whether HIF present in the nucleus of the KCN1 and CoCl2 treated cells was transcriptionally active were performed. […]

[6] = test system: Akt (Serine 473 phosphorylation), PI3K signaling pathway; assay: Akt phosphorylation in response to IGF1; format: cell-based; conditions: 1, 3, and 6 hrs
Description: In addition, experiments focused on whether HIF present in the nucleus of the KCN1 and CoCl2 treated cells was transcriptionally active were performed. […] Third, an experiment focused on whether KCN1 might interfere with HIF synthesis through the PI3 kinase/Akt/mTOR pathway that controls mRNA translation was performed. The effects of KCN1 on the phosphorylation of Akt in response to growth factor IGF1 (insulin growth factor 1) were examined. […] This finding might have therapeutic implications independently of the activities of KCN1 on HIF.

[7] = test system: topoisomerase II; assay: kinetoplast DNA decatenation assay; format: biochemical
Description: FIG. 15 illustrates that HIF inhibitor F2 (Psammaplin analogue) but not KCN1 inhibits topoisomerase II activity. Purified topo II activity with F2 or KCN1 was analyzed under normoxia using kDNA decatenation assay. To examine the activity, 1% agarose gel with ethidium bromide was used and it enabled to detect catenated kDNA and decatenated kDNA. In lanes 5 and 9, inhibition of topoisomerase II activity was detected as evidenced by the presence of catenated DNA.
Finally, an experiment focused on whether some of the HIF inhibitors might have an effect on topoisomerase function was performed. It has been reported in the literature that some HIF inhibitors may act via a topoisomerase-dependent mechanism (Rapisarda A et al 2004, Cancer Res 64-1475-82). KCN1 and psammaplin analogue F2 (FIG. 8) were tested and their inhibitory effect on topoisomerase II using a kinetoplast DNA decatenation assay (FIG. 15) was examined.

[8] = experimental LogP; format: physicochemical
Excerpt: Four grams of KCN1 have been synthesized for initial PK and anti-tumor studies. FIG. 10 illustrates an illustrative embodiment of a method for forming KCN1.

[9] = PK study in U87MG-EGFRvIII brain tumor model, HPLC; format: in vivo, mice; conditions: iv. 35 mg/kg; 6, 18 and 24 hrs
Description: FIG. 18 illustrates a PK study of KCN1 in a brain tumor model. FIG. 18(A) illustrates MRI of U87MG-EGFRvIII grown in mice brain. FIG. 18(B) illustrates the kinetics of KCN1 accumulation in normal and tumoral brain after iv. injection at 35 mg/kg.
The BBB may constitute an obstacle to drug delivery. To examine whether KCN1 would reside in the brain over a longer period of time and whether it would accumulate in higher amounts in the tumor versus normal brain we carried out a preliminary PK experiment. Nude mice carrying U87MG-EGFRvIII tumors were injected iv. with KCN1 and sacrificed at 6, 18 and 24 hrs. KCN1 concentration in the brain tumor and contra-lateral normal brain was performed by HPLC.

[10] = test system: HIF-dependent luciferase activity; assay: pharmacodynamic BLI study in LN229 HRE-luciferase glioma xenografts; format: in vivo, mouse
Description: FIG. 19 illustrates a pharmacodynamic study of KCN1 in nu/nu mouse bearing LN229HRE-luci-ferase gliomas. KCN1 (2 mg) dissolved in DMSO was injected in the right hind tumor, and DMSO control in the left hind tumor. The mouse was injected with D-luciferin and imaged by BLI before FIG. 19 (C) and 5 & 28 hrs after injection. It should be noted strong reduction in HIF-dependent luciferase activity in right hind tumor at 5 hrs and partial recovery of HIF signaling after 28 hrs. (n=2).
It is well appreciated that the efficacy of anti-cancer agents in rodents is an imprecise predictor of the success of these drugs in clinical trials. Therefore, evaluating the molecular and mechanistic end points of drug treatment is an important complementary approach to early pre-clinical studies. With this in mind, we sought to determine whether our lead HIF-1 pathway inhibitor (KCN1) can reduce HIF activity in a glioma xenograft model. In a pilot study, we used a mouse bearing 4 xenografts of LN229 cells containing a stable HIF responsive luciferase reporter (size-matched medium sized tumors in the back and small ones in the front). The HIF-dependent luciferase activity in the tumors was detected by non-invasive BLI. As expected, the larger hind tumors produced the strongest luciferase signal, likely due to the increase in the hypoxic volume. […]

[11] = test system: LN229 glioma xenograft; assay: sc LN229 glioma xenograft growth; format: in vivo, nude mice
Description: FIG. 20 illustrates that KCN1 inhibits sc LN229 glioma xenograft growth. LN-229 (5×10^6) was implanted in both flanks of nude mice (8/group) and 1 week later started intraperitoneal injections of KCN1 (60 mg/kg; 5 days/week). FIG. 20(A) illustrates tumor volume over time as measured with a caliper.
(§4) KCN1 was formulated in Cremaphor/EtOH for mice delivery and determined empirically (i.e., without prior under-standing of its in vivo pharmacology) whether preliminary anti-tumorigenic effects could be observed. […] (up to 100 mg/kg) injected animals.

[12] = tolerability in injected animals; format: in vivo; conditions: it. and iv. (up to 100 mg/kg)
Description: as §4

SMILES | IC50 ([1]; LN229-HRE-AP cells, hypoxia 1% O2) | inhibitory activity relative to initial HIF-inhibitor 85D5R ([1]; SAR, modifications in regions I and II) | HIF-1α protein level under hypoxia ([2]; LN229 cells, KCN1 25 uM, 1% O2, 5 hrs) | stabilization of HIF-1alpha under normoxia ([2]; induced by CoCl2, desferroxiamine or MG132) | effects on phospho-proteins with detectable phosphorylation [3] | HIF-1alpha mRNA levels [4] | luciferase activity of HRE-luciferase reporter ([5]; KCN1 and CoCl2 treated cells) | nuclear accumulation of HIF ([5]; LN229 cells, CoCl2 conditions) | IGF1-induced phosphorylation of Akt on Serine 473 [6] | phospho-Akt level [6] | topo II activity ([7]; 5-25 uM) | experimental LogP [8] | distribution between brain tumor and contra-lateral normal brain [9] | reduction of HIF-dependent luciferase activity in injected tumor ([10]; 2 mg in DMSO intratumoral, 5 hrs) | HIF-dependent luciferase activity in injected tumor ([10]; after 28 h) | weight of dissected tumors, fold less than control ([11]; 60 mg/kg intraperitoneal, 5 days/week, at termination) | tumor growth ([11]; Cremaphor/EtOH formulation) | toxicity [12] | topo II activity ([7]; 100 uM)
COc1ccc(S(=O)(=O)N(Cc2ccc3c(c2)C=CC(C)(C)O3)c2ccccc2)cc1OC [KCN1] | ~4 µM | improved acitivities | strong anti-HIF-1α activity is detected | is not inhibited | < 1.5 fold | remained constant | remained active | does not interfere with nuclear accumulation | not inhibited | increase in phospho-Akt is observed | did not inhibit | 3.9 | preferentially accumulates in and is retained in the brain tumor | > 90% | recovered | ~6 fold | strong and sustained inhibition of tumor growth | no apparent toxicity was observed | 
COc1cc([C@@H]2c3cc4c(cc3[C@@H](O[C@@H]3O[C@@H]5CO[C@@H](C)O[C@H]5[C@H](O)[C@H]3O)[C@H]3COC(=O)[C@H]23)OCO4)cc(OC)c1O [etoposide, reference compound] |  |  |  |  |  |  |  |  |  |  |  |  |  |  |  |  |  |  | inhibitory activity observed
